This passage reports Ratio, Selectivity ratio and IC50 results from ChEMBL document CHEMBL1153125, “Benzylidene cyclopentenediones: First irreversible inhibitors against botulinum neurotoxin A's zinc endopeptidase” (Bioorg Med Chem Lett, 2010).

pIC50: −log10 of the molar value.

For assay [1], the target named is Botulinum neurotoxin type A (Clostridium botulinum) (UniProt P0DPI0). Briefly: Ratio of Kinact to Ki for Clostridium botulinum BoNT/A.
The nature of assay [2]: Selectivity for Clostridium botulinum BoNT/A over MMP9.
In assay [3] the target is Matrix metalloproteinase-9 (Homo sapiens) (UniProt P14780). Briefly: Ratio of Kinact to Ki for MMP9.
Chain of Matrix metalloproteinase-9 (Homo sapiens) (P14780 whole entry): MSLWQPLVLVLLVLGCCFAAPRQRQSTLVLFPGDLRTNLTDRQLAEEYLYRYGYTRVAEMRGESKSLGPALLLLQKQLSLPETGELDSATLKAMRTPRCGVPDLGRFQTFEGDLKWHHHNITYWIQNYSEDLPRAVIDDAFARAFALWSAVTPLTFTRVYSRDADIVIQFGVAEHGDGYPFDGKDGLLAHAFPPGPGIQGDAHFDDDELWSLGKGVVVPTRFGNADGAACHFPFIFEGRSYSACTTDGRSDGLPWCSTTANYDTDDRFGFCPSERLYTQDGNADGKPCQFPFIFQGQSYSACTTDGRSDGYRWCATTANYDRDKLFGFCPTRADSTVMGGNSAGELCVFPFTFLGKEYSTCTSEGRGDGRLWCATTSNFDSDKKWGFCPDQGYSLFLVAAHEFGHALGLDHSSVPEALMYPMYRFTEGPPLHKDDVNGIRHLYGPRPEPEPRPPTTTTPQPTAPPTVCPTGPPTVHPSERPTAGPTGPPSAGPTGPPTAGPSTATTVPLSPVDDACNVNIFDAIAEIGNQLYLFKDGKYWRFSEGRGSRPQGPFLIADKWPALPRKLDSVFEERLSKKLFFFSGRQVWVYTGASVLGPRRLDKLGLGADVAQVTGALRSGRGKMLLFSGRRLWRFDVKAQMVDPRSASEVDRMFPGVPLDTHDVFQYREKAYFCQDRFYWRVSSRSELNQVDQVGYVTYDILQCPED
Assay [4] addresses 72 kDa type IV collagenase (Homo sapiens) (UniProt P08253). Briefly: Ratio of Kinact to Ki for MMP2.
Assay [5] deals with Botulinum neurotoxin type A (Clostridium botulinum, UniProt P0DPI0). Put plainly: Inhibition of Clostridium botulinum BoNT/A.
Chain of Botulinum neurotoxin type A (P0DPI0 2-448 limits assumed): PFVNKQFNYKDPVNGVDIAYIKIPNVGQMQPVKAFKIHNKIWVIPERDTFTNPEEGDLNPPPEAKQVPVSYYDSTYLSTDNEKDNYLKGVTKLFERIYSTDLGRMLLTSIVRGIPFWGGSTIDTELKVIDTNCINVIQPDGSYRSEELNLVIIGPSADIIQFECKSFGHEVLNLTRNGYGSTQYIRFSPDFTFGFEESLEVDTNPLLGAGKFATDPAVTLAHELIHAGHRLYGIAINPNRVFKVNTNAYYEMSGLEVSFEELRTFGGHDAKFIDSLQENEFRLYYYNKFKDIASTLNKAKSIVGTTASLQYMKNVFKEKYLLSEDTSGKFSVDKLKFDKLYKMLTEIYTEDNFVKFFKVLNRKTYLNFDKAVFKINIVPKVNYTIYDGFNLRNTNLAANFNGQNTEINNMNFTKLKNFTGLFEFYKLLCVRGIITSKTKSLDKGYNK

Chain of Botulinum neurotoxin type A (Clostridium botulinum) (P0DPI0 2-448 limits assumed): as above
Chain of 72 kDa type IV collagenase (Homo sapiens) (P08253 110-660 limits assumed): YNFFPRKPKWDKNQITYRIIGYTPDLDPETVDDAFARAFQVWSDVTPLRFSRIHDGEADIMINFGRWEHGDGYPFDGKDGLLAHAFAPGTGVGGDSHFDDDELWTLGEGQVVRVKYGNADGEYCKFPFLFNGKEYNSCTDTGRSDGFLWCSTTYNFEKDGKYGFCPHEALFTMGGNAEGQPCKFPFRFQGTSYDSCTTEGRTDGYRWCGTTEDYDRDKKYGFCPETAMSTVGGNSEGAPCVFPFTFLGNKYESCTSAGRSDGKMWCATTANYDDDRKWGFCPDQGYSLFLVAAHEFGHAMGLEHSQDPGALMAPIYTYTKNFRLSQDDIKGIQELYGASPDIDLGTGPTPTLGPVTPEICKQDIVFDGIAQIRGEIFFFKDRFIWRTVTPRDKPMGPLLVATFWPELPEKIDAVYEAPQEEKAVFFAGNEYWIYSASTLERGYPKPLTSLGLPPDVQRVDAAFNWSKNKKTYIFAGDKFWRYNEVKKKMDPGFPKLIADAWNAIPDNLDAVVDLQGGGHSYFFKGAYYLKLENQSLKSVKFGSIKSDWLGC

Regarding `Cc1cc(Cl)ccc1C=C1C(=O)C=CC1=O`, the Ratio was 580 in assay [1] and 58 in assay [3]. Moreover, the Selectivity ratio in assay [2] turned out to be 9.

In the case of `CCCCCc1ccc(C=C2C(=O)C=CC2=O)cc1`, the Ratio in assay [1] amounted to 80.

For `O=C1C=CC(=O)C1=Cc1ccc(Cl)cc1Cl`, the Ratio in assay [1] is 520; in assay [4], less than 33; in assay [3] it was 61. Besides, in assay [2], the Selectivity ratio stood at 9.

Take `Cc1cc(Cl)ccc1/C=C/C(=O)NO`: in assay [5], the pIC50 (as a rule, the IC50 on a negative log10 scale, so that one unit is a factor of ten) was 6.10.

Turning to `CCCCCc1ccc(C(=O)NO)cc1`, in assay [5], the pIC50 is 4.39.
